Literature values in EP0983068B1, “THE USE OF 1,2,4-TRIAZOLO 1,5-c]PYRIMIDINE HETEROCYCLIC ANALOGUES FOR THE PREPARATION OF MEDICAMENTS USEFUL FOR THE TREATMENT OF CEREBROVASCULAR DISTURBANCES” (SCHERING-PLOUGH S.p.A., priority 1997, dated 1998).

System: cerebral ischemia
Details: Life Sciences, 55, 61-65, 1994; Brain Research 705, 79-84, 1995

CP66713
effect in cerebral ischemia animal models: act favourably
